Measurements reported in BindingDB's records for PubMed 35671625 (Northwest University, 2022).

Molecular target: Beta-2 adrenergic receptor (Homo sapiens, UniProt P07550)
Assay: Displacement of [3H]-CGP12,177 from immobilized Halo tag-fused beta2 adrenoceptor (unknown origin) expressed in Escherichia coli BL21 (DE3)

Chain of Beta-2 adrenergic receptor (P07550 whole entry, the tested form may be a part): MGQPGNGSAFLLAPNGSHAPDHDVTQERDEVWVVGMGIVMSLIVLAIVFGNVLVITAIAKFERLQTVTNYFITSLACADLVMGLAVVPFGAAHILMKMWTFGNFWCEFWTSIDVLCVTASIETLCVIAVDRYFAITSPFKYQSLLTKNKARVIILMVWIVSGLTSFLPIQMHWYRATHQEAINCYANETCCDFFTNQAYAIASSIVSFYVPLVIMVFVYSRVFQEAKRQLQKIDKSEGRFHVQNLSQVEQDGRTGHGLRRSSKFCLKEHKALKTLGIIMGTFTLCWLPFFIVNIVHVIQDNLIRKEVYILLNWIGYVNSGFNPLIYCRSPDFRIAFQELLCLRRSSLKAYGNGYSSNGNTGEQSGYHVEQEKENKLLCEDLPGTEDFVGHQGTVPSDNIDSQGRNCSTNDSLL

`CNC(C)Cc1ccccc1OC` (stereo unspecified) [Methoxyphenamine] showed a Kd of 2.1 nM.
